Laboratory results as given in patent US20230167073A1 (Teijin Pharma Limited, priority 2020, published 2023).

Each compound was assayed against T1, Human TRPC6 (Homo sapiens, UniProt Q9Y210) (assay: Evaluation of TRPC6 channel inhibitory activity (1), FLIPR Calcium 5 Assay Kit, OAG stimulation (Compound Nos. 1-1293)). Conditions: not given.
T1 construct: expressed in transfected cells
T1 sequence (Q9Y210 1-931): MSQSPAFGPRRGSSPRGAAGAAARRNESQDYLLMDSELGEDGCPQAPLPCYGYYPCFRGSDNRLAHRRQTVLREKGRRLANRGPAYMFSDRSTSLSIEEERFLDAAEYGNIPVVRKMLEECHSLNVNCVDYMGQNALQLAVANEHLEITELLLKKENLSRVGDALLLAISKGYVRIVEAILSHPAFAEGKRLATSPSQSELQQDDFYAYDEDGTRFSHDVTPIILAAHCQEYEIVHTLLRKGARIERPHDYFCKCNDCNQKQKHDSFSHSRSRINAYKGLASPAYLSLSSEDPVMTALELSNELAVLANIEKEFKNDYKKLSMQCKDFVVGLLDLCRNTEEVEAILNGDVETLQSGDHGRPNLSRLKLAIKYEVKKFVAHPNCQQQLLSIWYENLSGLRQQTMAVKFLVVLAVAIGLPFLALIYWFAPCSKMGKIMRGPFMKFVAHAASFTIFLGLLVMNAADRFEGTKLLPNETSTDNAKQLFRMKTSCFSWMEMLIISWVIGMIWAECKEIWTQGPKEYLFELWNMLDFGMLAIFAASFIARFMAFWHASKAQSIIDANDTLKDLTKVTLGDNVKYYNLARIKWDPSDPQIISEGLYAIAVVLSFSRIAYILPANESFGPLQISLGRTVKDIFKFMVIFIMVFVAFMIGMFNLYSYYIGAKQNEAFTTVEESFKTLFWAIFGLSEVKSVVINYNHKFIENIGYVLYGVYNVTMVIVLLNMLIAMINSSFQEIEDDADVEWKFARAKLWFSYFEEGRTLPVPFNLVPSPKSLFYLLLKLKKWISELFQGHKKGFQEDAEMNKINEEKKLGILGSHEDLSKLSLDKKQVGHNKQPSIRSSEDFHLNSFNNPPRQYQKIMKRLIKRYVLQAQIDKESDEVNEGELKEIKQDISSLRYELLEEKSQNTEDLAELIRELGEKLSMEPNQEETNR
Type: cell-based
Outline: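 The FLIPR signal is maximum fluorescence after 30 μM OAG minus minimum before compound, measured in a human TRPC6 stable line loaded with Calcium 5 dye. Compounds were preincubated 20 min. pIC50 came from four-parameter logistic fitting of inhibition rates and is given as symbol ranges.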

SMILES | IC50 [µM]
Cc1nc(Oc2cc(C#N)ccc2-n2cc(C3=CCNCC3)cn2)cc(C2CCCC2)n1 [Compound 221, 3-(6-cyclopentyl-2-methylpyrimidin-4-yl)oxy-4-[4-(1,2,3,6-tetrahydropyridin-4-yl)pyrazol-1-yl]benzonitrile] | 0.01 to 1

Same assay, conditions: Human TRPC6 stably-expressing cells, OAG 30 μM, FLIPR Calcium 5 Assay Kit; read-out: Inhibitory activity (pIC50 class) (converted)

IC50 [µM] | SMILES
0.01 to 1 | Cn1nc(-c2ccccc2)cc1Oc1cc(C#N)ccc1-c1ccc(CCNC2COC2)cn1 [Compound 207, 3-(2-methyl-5-phenylpyrazol-3-yl)oxy-4-[5-[2-(oxetan-3 ylamino)ethyl]pyridin-2-yl]benzonitrile]
> 1 | Cc1nc(Oc2cc(C#N)ccc2-n2cc(N3CCNCC3=O)cn2)cc(C2CCCC2)n1 [Compound 208, 3-(6-Cyclopentyl-2-methylpyrimidin-4-yl)oxy-4-[4-(2-oxopiperazin-1-yl)pyrazol-1-yl]benzonitrile]
< 0.01 | CC(C)Cc1cc(Oc2cc(C#N)ccc2-c2ccc(C(O)CN)cc2)n(C)n1 (stereo not drawn) [Compound 212, 4-[4-(2-amino-1-hydroxyethyl)phenyl]-3-[2-methyl-5 (2-methylpropyl)pyrazol-3-yl]oxybenzonitrile]
< 0.01 | Cn1nc(C2CC2)cc1Oc1cc(C#N)ccc1-c1ccc(CCN)cc1 [Compound 213, 4-[4-(2-aminoethyl)phenyl]-3-(5-cyclopropyl-2-methylpyrazol-3-yl)oxybenzonitrile]
< 0.01 | Cn1nc(C2CC2)cc1Oc1cc(C#N)ccc1-c1ccc(C(O)CN)cc1 (stereo not drawn) [Compound 215, 4-[4-(2-amino-1-hydroxyethyl)phenyl]-3-(5-cyclopropyl-2-methylpyrazol-3-yl)oxybenzonitrile]
0.01 to 1 | Cn1nc(C2CC2)cc1Oc1cc(C#N)ccc1-c1nc(C(O)CN)cs1 (stereo not drawn) [Compound 216, 4-[4-(2-amino-1-hydroxyethyl)-1,3-thiazol-2-yl]-3-(5-cyclopropyl-2-methylpyrazol-3-yl)oxybenzonitrile]
> 1 | Cn1nc(-c2ccccc2)cc1Oc1cc(C#N)ccc1-n1cc(N2CCNCC2=O)cn1 [Compound 217, 3-(2-methyl-5-phenylpyrazol-3-yl)oxy-4-[4-(2-oxopiperazin-1-yl)pyrazol-1-yl]benzonitrile]
0.01 to 1 | Cc1nc(Oc2cc(C#N)ccc2-c2nc([C@@H](O)CN)cs2)cc(-c2ccccc2)n1 [Compound 222, 4-[4-[(1S)-2-amino-1-hydroxyethyl]-1,3-thiazol-2-yl]-3-(2-methyl-6-phenylpyrimidin-4-yl)oxybenzonitrile]
0.01 to 1 | Cc1nc(Oc2cc(C#N)ccc2-c2nc([C@H](O)CN)cs2)cc(-c2ccccc2)n1 [Compound 223, 4-[4-[(1R)-2-amino-1-hydroxyethyl]-1,3-thiazol-2-yl]-3-(2-methyl-6-phenylpyrimidin-4-yl)oxybenzonitrile]
< 0.01 | Cn1nc(-c2ccccc2)cc1Oc1cc(C#N)ccc1-c1ncc(C(O)CN)s1 (stereo not drawn) [Compound 225, 4-[5-(2-amino-1-hydroxyethyl)-1,3-thiazol-2-yl]-3-(2-methyl-5-phenylpyrazol-3-yl)oxybenzonitrile]
< 0.01 | Cc1cc(Oc2cc(C#N)ccc2-n2cc(C(O)CN)cn2)cc(-c2ccccc2)n1 (stereo not drawn) [Compound 226, 4-[4-(2-amino-1-hydroxyethyl)pyrazol-1-yl]-3-(2-methyl-6-phenylpyridin-4-yl)oxybenzonitrile]
< 0.01 | CC(C)Cc1cc(Oc2cc(C#N)ccc2-c2ccc(CCN)cn2)n(C)n1 [Compound 228, 4-[5-(2-aminoethyl)pyridin-2-yl]-3-[2-methyl-5-(2-methylpropyl)pyrazol-3-yl]oxybenzonitrile]
< 0.01 | CC(C)c1cc(Oc2cc(C#N)ccc2-c2ccc(CCN)cn2)n(C)n1 [Compound 229, 4-[5-(2-aminoethyl)pyridin-2-yl]-3-(2-methyl-5-propan-2-ylpyrazol-3-yl)oxybenzonitrile]
< 0.01 | CNC[C@H](O)c1cnn(-c2ccc(C#N)cc2Oc2cc(-c3ccccc3)nc(C)n2)c1 [Compound 231, 4-[4-[(1R)-1-hydroxy-2-(methylamino)ethyl]pyrazol-1-yl]-3-(2-methyl-6-phenylpyrimidin-4-yl)oxybenzonitrile]

The remaining lines, values behind:

SMILES | IC50 [µM]
Cc1cccc(-c2cc(Oc3cc(C#N)ccc3-n3cc([C@@H](O)CN)cn3)nc(C)n2)c1 [Compound 205, 4-[4-[(1R)-2-amino-1-hydroxyethyl]pyrazol-1-yl]-3-[2-methyl-6-(3-methylphenyl)pyrimidin-4-yl]oxybenzonitrile] | < 0.01
Cc1cccc(-c2cc(Oc3cc(C#N)ccc3-n3cc([C@H](O)CN)cn3)nc(C)n2)c1 [Compound 206, 4-[4-[(1S)-2-amino-1-hydroxyethyl]pyrazol-1-yl]-3-[2-methyl-6-(3-methylphenyl)pyrimidin-4-yl]oxybenzonitrile] | < 0.01
Cc1nc(Oc2cc(C#N)ccc2-n2cc(N3CCCNCC3=O)cn2)cc(C2CCCC2)n1 [Compound 209, 3-(6-cyclopentyl-2-methylpyrimidin-4-yl)oxy-4-[4-(2-oxo-1,4-diazepan-1-yl)pyrazol-1-yl]benzonitrile] | > 1
Cc1nc(Oc2cc(C#N)ccc2-n2cc(N3CCNCCC3=O)cn2)cc(C2CCCC2)n1 [Compound 210, 3-(6-cyclopentyl-2-methylpyrimidin-4-yl)oxy-4-[4-(7-oxo-1,4-diazepan-1-yl)pyrazol-1-yl]benzonitrile] | > 1
CC(C)Cc1cc(Oc2cc(C#N)ccc2-c2ccc(CCN)cc2)n(C)n1 [Compound 211, 4-[4-(2-aminoethyl)phenyl]-3-[2-methyl-5-(2-methylpropyl)pyrazol-3-yl]oxybenzonitrile] | < 0.01
Cn1nc(C2CC2)cc1Oc1cc(C#N)ccc1-c1ccc(C(=O)CN)cc1 [Compound 214, 4-[4-(2-aminoacetyl)phenyl]-3-(5-cyclopropyl-2-methylpyrazol-3-yl)oxybenzonitrile] | 0.01 to 1
Cn1nc(-c2ccccc2)cc1Oc1cc(C#N)ccc1-n1cc(N2CCCNCC2=O)cn1 [Compound 218, 3-(2-methyl-5-phenylpyrazol-3-yl)oxy-4-[4-(2-oxo-1,4-diazepan-1-yl)pyrazol-1-yl]benzonitrile] | > 1
Cn1nc(-c2ccccc2)cc1Oc1cc(C#N)ccc1-n1cc(N2CCNCCC2=O)cn1 [Compound 219, 3-(2-Methyl-5-phenylpyrazol-3-yl)oxy-4-[4-(7-oxo-1,4-diazepan-1-yl)pyrazol-1-yl]benzonitrile] | 0.01 to 1
Cn1nc(C(F)(F)F)cc1Oc1cc(C#N)ccc1-n1cc(N2CCNCC2=O)cn1 [Compound 220, 3-[2-methyl-5-(trifluoromethyl)pyrazol-3-yl]oxy-4-[4-(2-oxopiperazin-1-yl)pyrazol-1-yl]benzonitrile] | > 1
Cc1nc(Oc2cc(C#N)ccc2-c2ncc(C(O)CN)s2)cc(-c2ccccc2)n1 (stereo not drawn) [Compound 224, 4-[5-(2-amino-1-hydroxyethyl)-1,3-thiazol-2-yl]-3-(2-methyl-6-phenylpyrimidin-4-yl)oxybenzonitrile] | 0.01 to 1
Cn1nc(C2CCOCC2)cc1Oc1cc(C#N)ccc1-c1ccc(CCN)cn1 [Compound 227, 4-[5-(2-aminoethyl)pyridin-2-yl]-3-[2-methyl-5-(oxan-4-yl)pyrazol-3-yl]oxybenzonitrile] | < 0.01
CCCc1cc(Oc2cc(C#N)ccc2-c2ccc(CCN)cn2)n(C)n1 [Compound 230, 4-[5-(2-aminoethyl)pyridin-2-yl]-3-(2-methyl-5-propylpyrazol-3-yl)oxybenzonitrile] | < 0.01
Cc1nc(Oc2cc(C#N)ccc2-n2cc([C@@H](O)CN)cn2)cc(N2CCCC2)n1 [Compound 232, 4-[4-[(1R)-2-amino-1-hydroxyethyl]pyrazol-1-yl]-3-(2-methyl-6-pyrrolidin-1-ylpyrimidin-4-yl)oxybenzonitrile] | < 0.01
Cc1nc(Oc2cc(C#N)ccc2-n2cc([C@@H](O)CN)cn2)cc(N2CCCCC2)n1 [Compound 233, 4-[4-[(1R)-2-amino-1-hydroxyethyl]pyrazol-1-yl]-3-(2-methyl-6-piperidin-1-ylpyrimidin-4-yl)oxybenzonitrile] | < 0.01
Cc1nc(Oc2cc(C#N)ccc2-n2cc([C@@H](O)CN)cn2)cc(N2CCC(C(C)C)CC2)n1 [Compound 234, 4-[4-[(1R)-2-amino-1-hydroxyethyl]pyrazol-1-yl]-3-[2-methyl-6-(4-propan-2-ylpiperidin-1-yl)pyrimidin-4-yl]oxybenzonitrile] | > 1
